# Measured values: patent US20100233278A1, “RAPIDLY DISINTEGRATING SOLID PREPARATION” (priority 2007, published 2010)
# Assay: dissolution rate of saccharide or sugar alcohol, 6-vessel dissolution tester
# Assay type: physicochemical
# Conditions: 2 g in desalted water 500 mL, 37° C., paddle 50 min^−1; rate constant k per surface area
# Experimental: In the present invention, the “dissolution rate” is obtained by using a 6-vessel dissolution tester (NTR-6100, Toyama Sangyo Co., Ltd.). The paddle rotation speed was 50 min^−1, and saccharide or sugar alcohol was added by 2 g to desalted water (500 mL), which is a test solution, heated to 37° C. Samples were taken at given time intervals after addition, changes in the dry weight of the samples per unit time were calculated, and dissolution rate constant k was calculated by the Noyes-Whitney equation. The dissolution rate constant k was converted to value per surface area of each saccharide or sugar alcohol and the obtained value was taken as dissolution rate [1/min·m^2]. As the specific surface area, the value measured by a laser diffraction particle size analyzer [Mastersizer] of Malvern Instruments Ltd. was used. The tablets obtained in the Examples and Comparative Examples were measured for hardness, disintegration time in the oral cavity, disintegration time (ODT) by the following test methods. In addition, the dissolution rate of saccharide and sugar alcohol used in the Examples and Comparative Examples was measured. • (1) The hardness was measured by a tablet hardness tester (WHT-2ME, Pharma Test). The test was performed using 3 or 10 tablets, and the average value is shown. • (2) As for the disintegration time in the oral cavity, the tablet of the present invention was placed in the oral cavity of a healthy adult without water, and the time necessary for complete disintegration of the tablet with only saliva was measured. • (3) The disintegration time (ODT) was measured by an Orally Disintegrating Tablet Tester (ODT-101, Toyama Sangyo Co., Ltd.). As for the measurement conditions, a weight (15 g, weight diameter 15 mm) was used at a rotating speed of 50 rpm, and an average of 3 measures was taken. • (4) The “dissolution rate” was measured by using a 6-vessel dissolution tester (NTR-6100, Toyama Sangyo Co., Ltd.). The paddle rotation speed was 50 min^−1, and saccharide or sugar alcohol was added by 2 g to desalted water (500 mL), which is a test solution, heated to 37° C. Samples were taken at given time intervals after addition, changes in the dry weight of the samples per unit time were calculated, and dissolution rate constant k was calculated by the Noyes-Whitney equation. The dissolution rate constant k was converted to value per the surface area of each saccharide or sugar alcohol and the obtained value was taken as dissolution rate [1/min·m^2]. As the specific surface area, the value measured by a laser diffraction particle size analyzer [Mastersizer] of Malvern Instruments Ltd. was used.
row,Compound,dissolution rate
1,OC[C@H]1O[C@@H](O[C@H]2[C@H](O)[C@@H](O)C(O)O[C@@H]2CO)[C@H](O)[C@@H](O)[C@H]1O (stereo partly drawn) [Lactose],5.68 1/min·m^2
2,OC[C@H]1O[C@@](CO)(O[C@H]2O[C@H](CO)[C@@H](O)[C@H](O)[C@H]2O)[C@@H](O)[C@@H]1O [Purification sucrose],2.80 1/min·m^2

# The remaining lines, values ahead:
row,dissolution rate,Compound
1,11.99 1/min·m^2,OC[C@@H](O)[C@@H](O)CO [Erythritol]
2,3.57 1/min·m^2,OC[C@@H](O)[C@H](O)[C@@H](O)CO [Xylitol]
3,4.62 1/min·m^2,OC[C@@H](O)[C@@H](O)[C@H](O)[C@H](O)CO [α-form mannitol]
4,2.28 1/min·m^2,OC[C@@H](O)[C@@H](O)[C@H](O)[C@H](O)CO [β-form mannitol]
